Paper PMC12386283, “Elucidating the Complex Structural and Molecular Mechanisms Driving P-Glycoprotein-Mediated Transport of Cardiac Glycosides” (International Journal of Molecular Sciences, 2025)
Where “and” joins values, the source holds several entries; their conditions need not be identical. Equal values may be shown once. Read-outs that look alike come from different tables or passages of the source.

How the values were obtained:
[1] = molecular target: T1, wild-type mouse Pgp (MDR3) (Mus musculus, UniProt P21447); assay: Pgp-mediated ATPase activity (Chifflet colorimetric Pi assay, proteoliposomes)
T1 sequence (P21447 whole entry): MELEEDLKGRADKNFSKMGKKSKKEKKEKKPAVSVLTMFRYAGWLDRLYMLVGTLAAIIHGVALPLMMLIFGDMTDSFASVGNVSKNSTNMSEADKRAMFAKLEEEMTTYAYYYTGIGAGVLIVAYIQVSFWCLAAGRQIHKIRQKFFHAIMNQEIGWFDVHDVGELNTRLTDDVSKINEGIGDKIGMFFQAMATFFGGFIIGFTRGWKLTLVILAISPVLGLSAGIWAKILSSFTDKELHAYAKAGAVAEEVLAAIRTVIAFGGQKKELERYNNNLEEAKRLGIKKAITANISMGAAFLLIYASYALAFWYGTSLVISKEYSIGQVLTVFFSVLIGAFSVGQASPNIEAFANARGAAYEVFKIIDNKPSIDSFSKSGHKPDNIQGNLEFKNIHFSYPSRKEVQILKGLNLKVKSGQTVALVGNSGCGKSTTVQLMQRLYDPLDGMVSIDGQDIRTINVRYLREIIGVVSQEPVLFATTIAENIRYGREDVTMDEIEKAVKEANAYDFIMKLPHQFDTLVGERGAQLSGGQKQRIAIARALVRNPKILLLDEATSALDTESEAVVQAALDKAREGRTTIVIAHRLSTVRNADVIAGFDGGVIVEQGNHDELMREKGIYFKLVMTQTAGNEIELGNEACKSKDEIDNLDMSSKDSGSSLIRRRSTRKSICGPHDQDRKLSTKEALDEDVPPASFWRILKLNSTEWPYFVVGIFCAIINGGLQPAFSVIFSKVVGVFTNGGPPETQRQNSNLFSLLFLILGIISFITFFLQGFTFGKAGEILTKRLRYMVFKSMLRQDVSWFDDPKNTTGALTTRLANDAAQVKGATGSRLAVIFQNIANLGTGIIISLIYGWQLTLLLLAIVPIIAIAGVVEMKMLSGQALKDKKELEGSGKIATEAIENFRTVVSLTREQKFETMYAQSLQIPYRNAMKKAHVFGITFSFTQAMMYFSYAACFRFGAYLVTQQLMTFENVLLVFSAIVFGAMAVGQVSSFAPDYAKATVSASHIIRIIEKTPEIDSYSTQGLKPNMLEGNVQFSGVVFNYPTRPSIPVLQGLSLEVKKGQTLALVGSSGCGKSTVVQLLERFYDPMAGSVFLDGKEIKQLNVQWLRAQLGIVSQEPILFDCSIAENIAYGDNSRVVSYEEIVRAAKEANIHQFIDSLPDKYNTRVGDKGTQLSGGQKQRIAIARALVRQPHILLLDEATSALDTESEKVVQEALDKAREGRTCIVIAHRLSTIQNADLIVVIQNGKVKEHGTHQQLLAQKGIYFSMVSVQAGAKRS
Method: Overexpression of wild-type mouse Pgp (MDR3) was achieved by using genetically engineered strains of Pichia pastoris with a 6X histidine tag. The cells were cultured in glycerol media, and methanol was used to induce the overexpression of Pgp at the Bioexpression and Fermentation Facility (BFF), University of Georgia, Athens, GA, USA. A repeated cycle of freezing using liquid nitrogen, blending, and thawing was used to lyse the Pgp-expressing P. pastoris cells. The protein was purified using affinity chromatography with nickel-nitrilotriacetic acid (Ni-NTA) resin (Thermo Fisher Scientific, Waltham, MA, USA). DDM was used to solubilize the protein, and the solution was concentrated using Amicon Ultra-15 100 kDa cut-off filters (EMD Millipore, Billerica, MA, USA). […] The purified DDM-solubilized Pgp was aliquoted and stored at −80 °C for future analysis.
Pgp was reconstituted into liposomes as previously described. Briefly, liposomes comprising 80% (w/v) Avanti Escherichia coli total lipid extract and 20% (w/v) cholesterol were dissolved in chloroform to achieve a final concentration of 10 mg mL^−1, and the volume was adjusted to 10 mL. […] The solution was subjected to ten cycles of freeze–thaw using liquid nitrogen and a water bath (67 °C), resulting in the formation of liposomes with varying sizes, and extruded eleven times in a LIPEX extruder (Northern Lipids, Burnaby, BC, Canada) to produce identical-sized liposomes, using a 400 nm cut-off filter.
Approximately 40 µL of DDM-solubilized Pgp was dialyzed for two hours against HEPES buffer (20 mM HEPES, 100 mM NaCl, 5 mM MgCl2, 2 mM DTT, pH 7.4) to remove any remnants of the detergent, DDM. The dialyzed protein was mixed with 4 mg mL^−1 of the extruded liposomes and incubated on ice for at least one hour to allow Pgp to integrate into the liposomes. To remove any additional detergent and further facilitate Pgp integration into the liposome, the solution was dialyzed for a second time for two hours in HEPES buffer to form proteoliposomes, and the concentration of Pgp reconstituted in liposomes was determined using the Bio-Rad DC Protein assay. Finally, the solution was aliquoted and stored at −80 °C for future use.
The Chifflet method is a colorimetric method that measures the amount of free inorganic phosphate (Pi) through the formation of ammonium molybdate and Pi complex, which produces a strong absorbance at 850 nm. The absorbance was measured on a 96-well plate using a CLARIOstar microplate reader (BMG Labtech, Ortenberg, Germany). […] The final concentrations of the proteoliposome and ATP were maintained at 50 nM and 3.2 mM, respectively. Orthovanadate was used as a control and run in parallel to the samples. Finally, the kinetic curves for ATPase activity were fit to a modified Michaelis-Menten equation (Equation (1)). Igor 6.2 Pro software (Wavemetrics, Tigard, OR, USA) was used for data analysis.(1) V=VmaxS/Km+S+Vbasal where V = Rate of ATP hydrolysis; Vmax = Maximum velocity of ATP hydrolysis; [S] = Substrate concentration; Km = Michaelis–Menten constant; and Vbasal = basal ATPase activity.

[2] = molecular target: T1, wild-type mouse Pgp (MDR3)
Excerpt: The STDD NMR technique is a robust method used to characterize the interaction between a drug and receptor protein [36, 86]. This technique utilizes a saturated low-strength radio frequency (RF) to selectively excite the receptor protein. […] Due to the localization of Pgp, most of its substrates are lipophilic, resulting in a probable non-specific interaction between its substrates and liposomes in the observed STD NMR spectrum. Therefore, STD NMR of liposomes in the presence of drugs was performed. The resulting spectrum was subtracted from the ^1H STD NMR spectrum obtained from the drug in the presence of proteoliposome (Pgp reconstituted into liposome) to achieve a saturation transfer double-difference (STDD) NMR spectrum, which nullified the STD observations of the drugs in the presence of liposomes.
This technique was performed as previously described. […] The NMR tubes with the sample were centrifuged at 3000× g for 5 min. To suppress the background signals caused by water, a tailored gradient pulse sequence known as water suppression by gradient-tailored excitation (WATERGATE) was also included. A train of 50 ms Gaussian-shaped selective pulses was used to selectively excite and saturate Pgp for two seconds, and a relaxation delay of five seconds was also used. The STD NMR spectra for both the control and the samples were obtained through phase cycling, where the Pgp irradiation resonance was alternated between 1.5 ppm and 42 ppm on and off resonance, respectively, for 512 scans, creating the ^1H NMR spectrum.
For this experiment, the NMR studies were performed on a Bruker Avance NEO 800 MHz NMR spectrometer with a 1.7 mm TCI H{CN} probe at 25 °C. The STD NMR data generated were analyzed using iNMR software (Nucleomatic, Molfetta, Italy), Igor Pro 6.2, and Mnova 14.2.0 (Mastrelab Research S.L., Santiago de Compostela, Spain).

Pgp = conditions: CLEFF9 cells, cited from earlier work

SMILES | Effect on Pgp's ATPase hydrolytic activity relative to basal ([1]; in words) | Vmax of CG-induced Pgp-mediated ATP hydrolysis ([1]; relative to the offset (basal activity), 37 °C, 3.2 mM ATP, 50 nM proteoliposome, modified Michaelis-Menten fit) | Interaction (Region/Group) Pgp (STDD-NMR Data) ([2]; 1 mM drug, 1 µM Pgp, 25 °C) | Decrease of transport rate on treatment with erythromycin (Pgp) | Effect on Pgp's ATPase hydrolytic activity relative to basal [1] | Vmax of CG-induced Pgp-mediated ATP hydrolysis [1] | Interaction (Region/Group) Pgp (STDD-NMR Data) ([2]; mouse, not told, 1 mM, pH 7.4) | Effect of erythromycin treatment on Pgp-mediated efflux rate (Pgp; in words)
C[C@]12CC[C@H](O)C[C@H]1CC[C@@H]1[C@@H]2CC[C@]2(C)[C@@H](C3=CC(=O)OC3)CC[C@]12O [Digitoxigenin, (3β,5β)-3,14-Dihydroxy-card-20(22)-enolide] | induced | 216.02 ± 16.01 nmol/min/mg | Protons on C1, C12, C18, C19 of steroid; C22 of lactone | – | – | – | – | –
C[C@]12CC[C@H](O)C[C@H]1CC[C@@H]1[C@@H]2C[C@@H](O)[C@]2(C)[C@@H](C3=CC(=O)OC3)CC[C@]12O [Digoxigenin, 3β,12β,14-Trihydroxy-5β,20(22)-cardenolide] | induced | – | Protons on C1, C3,C12, C17, C18, C19 of steroid; C21, C22 of lactone | about 43% | – | – | – | –
C[C@H]1O[C@@H](O[C@H]2[C@@H](O)C[C@H](O[C@H]3[C@@H](O)C[C@H](O[C@H]4CC[C@@]5(C)[C@H](CC[C@@H]6[C@@H]5C[C@@H](O)[C@]5(C)[C@@H](C7=CC(=O)OC7)CC[C@]65O)C4)O[C@@H]3C)O[C@@H]2C)C[C@H](O)[C@@H]1O [Digoxin] | – | – | – | – | induced | 277.53 ± 7.24 nmol min^−1 mg^−1 and 277.53 ± 7.24 | Protons on C3,C18, C19 of steroid; C22 of lactone; C3,C5,C6 of sugar | did not affect
